Results from patent US20260327264A1, “PEPTIDE INHIBITORS OF INTERLEUKIN-23 RECEPTOR” (Zealand Pharma A/S, priority 2023, published 2026).
*1 amine or outer side, *2 acyl side, *3 side chain or, on linkers, in order; H or OH if unused. Where a SMILES comes first, the peptide text is derived from it. Bridges are numbered along the chain shown (N, C = ends). [ ]: non-standard residue; d: D form. 2Nal = N[C@@H](Cc1ccc2ccccc2c1)C(=O)O; AEF = NCCOc1ccc(C[C@H](N)C(=O)O)cc1; X1 = O=C(Cc1ccc(CN[*:1])cc1)[*:2]; 3Pal = N[C@@H](Cc1cccnc1)C(=O)O; αMeL = CC(C)C[C@](C)(N)C(=O)O; Dab = NCC[C@H](N)C(=O)O; Sar = CNCC(=O)O

Columns and labels:
[1] = system: IL-23 mediated IFN-γ secretion (human whole blood); assay: Functional inhibition of IL-23 mediated IFN-γ secretion in human whole blood; format: cell-based; details: Table 3-5, hIL-23 EC80 with hIL-2 and hIL-18
From the text: An in vitro human whole blood assay was used to assess the ability of IL23-R inhibitor compounds to inhibit IL-23-mediated IFN-γ secretion. The assay quantifies the functional antagonism of the IL23R inhibitors may be used to rank inhibitor potencies based on concentration response curves (CRCs) generated in the presence of fixed IL-23, IL-2 and IL-18 concentrations. […] and maximal inhibitory response may be calculated from the curves.
Human blood was obtained from voluntary donors at Blodbanken Hvidovre Hospital, Denmark on the day of the experiment by collection in BD Sodium-Heparin Vacutainer tubes [Cat #367876, Avantor].
The buffer used consisted of RPMI-1640 [Cat #61870-010; Thermo Fisher Scientific] supplemented with 1% V/V Penicillin-Streptomycin (Pen-Strep) Solution [Cat #15140; Thermo Fisher Scientific] and 1 mM Sodium Pyruvate [Cat #11360-039, Thermo Fisher Scientific] and 25 mM HEPES buffer [Cat #15630-056, Thermo Fisher Scientific] and 0.05% V/V Casein [Cat #C4765, Sigma-Aldrich] (hereafter referred to as assay buffer). […] A stimulatory solution of hIL-23 [Cat #11349-IL; R&D systems] corresponding to 4× the EC80 of hIL-23 (1.6 ng/ml) together with 4× hIL-2 [Cat #BT-002; R&D systems] (40 ng/ml) and 4× hIL-18 [Cat #9124-IL; R&D systems] (80 ng/ml) were also prepared in Assay buffer. To initiate the assay, 25 μL of the prepared 4× diluted test compound was added to the wells of a 96 well plate [Cat #167425; Thermo Scientific] followed by addition of 50 μL human whole blood to each well. Following the preincubation of the blood and inhibitor for 15 min in a cell incubator (37° C., 5% CO2), 25 μL of the prepared 4× stimulatory solution was added to each well and incubated for 16-24 hours in a humidity chamber in a cell incubator (37° C., 5% CO2).
To terminate the assay, 100 μL PBS pH 7.4 [Cat #10010-015; Thermo Fisher Scientific] was added to each well and the plate was spun at 350×G for ten minutes to pellet the blood. The supernatant was removed and added to a 96 well V-bottom Polypropylene plate [Corning 3363] using an 8-channel manual pipette.
Samples were diluted an additional 30× in Diluent 57 buffer from the MSD U-PLEX human IFN-γ assay [Cat #K151TTK-2; Mesoscale Discovery].
The IFN-γ level in the supernatant from the individual wells was determined using the MSD U-PLEX human IFN-γ assay kit [Cat #K151TTK-2; Mesoscale Discovery] and read on a Meso QuickPlex SQ 120 plate reader (Mesoscale Discovery).
For data analysis, raw data counts from the Meso QuickPlex SQ 120 plate reader were converted to concentrations of IFN-γ by using the standard curved supplied with the kit. Compound potency (IC50) and maximal inhibition (% inhibition) was estimated by computer-aided curve fitting using a 4-parameter logistic (4PL) non-linear mode. […] Maximal inhibition was expressed as a percentage where 0% is the activity level induced by the reference agonist alone ([…] together with IL-2 and IL-18 as indicated above), and 100% is the baseline activity level of the unstimulated receptor in the absence of the reference agonist.
Typically compounds with a low IC50 are desired. Typically compounds capable of completely inhibiting the IL23-induced response are desired.

[2] = Peptide stability in simulated intestinal fluid (SIF); format: in vitro ADME; details: simulated intestinal fluid; for remaining at 1 h, 10 µM: pig, SIF, pH 6.8, pancreatin, 37° C.
Summary of the method: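 Peptide at 10 μM final in USP-type SIF (10 g/L porcine pancreatin, phosphate buffer pH 6.8), shaken at 37 °C. Samples at 0, 1 and 4 h quenched in acetonitrile/0.1% formic acid and analysed by LC-HRMS. Percent remaining calculated from absolute peak areas relative to time zero.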

Compound | IC50 [1] [nM] | maximal inhibition (%) [1] [%] | remaining at 1 h, 10 µM [2] [%] | SIF stability (in words) [2]
CNC(=O)[C@H](Cc1cccnc1)NC(=O)[C@H](CCN)NC(=O)[C@@H]1CCC(=O)NCc2ccc(cc2)CC(=O)N[C@@H](CO)C(=O)N[C@H]2CCC(=O)NCC[C@H](NC(=O)[C@H](CCC(N)=O)NC(=O)[C@H](Cc3c[nH]c4ccccc34)NC2=O)C(=O)N[C@@H](Cc2ccc(OCCN)cc2)C(=O)N[C@@H](Cc2ccc3ccccc3c2)C(=O)N[C@@](C)(CC(C)C)C(=O)N1 [Compound 8, [4-Aminomethyl-phenylacetyl](1c)*SE(2c)WQ[Dab](2c)[Y(2-aminoethoxy)][2-Nal][2-Me-Leu]E(1c)[Dab][3-(3-Pyridyl)-Ala]-[NHMe]] | 0.33 | 96 | 96 | SIF stable
CNC(=O)[C@H](Cc1cccnc1)NC(=O)[C@H](CCN)NC(=O)[C@@H]1CCC(=O)NCc2ccc(cc2)CC(=O)N[C@@H](C)C(=O)N[C@H]2CCC(=O)NCC[C@H](NC(=O)[C@H](CCC(N)=O)NC(=O)[C@H](Cc3c[nH]c4ccccc34)NC2=O)C(=O)N[C@@H](Cc2ccc(OCCN)cc2)C(=O)N[C@@H](Cc2ccc3ccccc3c2)C(=O)N[C@@](C)(CC(C)C)C(=O)N1 [Compound 20, [4-Aminomethyl-phenylacetyl](1c)*AE(2c)WQ[Dab](2c)[Y(2-aminoethoxy)][2-Nal][2-Me-Leu]E(1c)[Dab][3-(3-Pyridyl)-Ala]-[NHMe]] | 0.64 | 97 | – | –
CNC(=O)CC[C@@H]1NC(=O)[C@H](Cc2c[nH]c3ccccc23)NC(=O)[C@@H]2CCC(=O)NCC[C@H](NC1=O)C(=O)N[C@@H](Cc1ccc(OCCN)cc1)C(=O)N[C@@H](Cc1ccc3ccccc3c1)C(=O)N[C@@](C)(CC(C)C)C(=O)N[C@H](C(=O)N[C@@H](CCN)C(=O)N[C@@H](Cc1cccnc1)C(=O)NC)CCC(=O)NCc1ccc(cc1)CC(=O)N[C@@H](CO)C(=O)N2 [Compound 29, [4-Aminomethyl-phenylacetyl](1c)*SE(2c)W[Q(Me)][Dab](2c)[Y(2-aminoethoxy)][2-Nal][2-Me-Leu]E(1c)[Dab][3-(3-Pyridyl)-Ala]-[NHMe]] ([X1]SEWE(NHMe)[Dab][AEF][2Nal][αMeL]E[Dab][3Pal]-NHMe; lactam 3-6, N-10) | 0.54 | 96 | 91 | –
CNC(=O)[C@H](Cc1cccnc1)NC(=O)[C@H](CCN)NC(=O)[C@@H]1CCC(=O)NCc2ccc(cc2)CC(=O)N[C@@H](C)C(=O)N[C@H]2CCC(=O)NCC[C@H](NC(=O)[C@H](CCC(N)=O)NC(=O)[C@H](Cc3c[nH]c4ccccc34)NC2=O)C(=O)N[C@@H](Cc2c[nH]c3ncccc23)C(=O)N[C@@H](Cc2ccc3ccccc3c2)C(=O)NC(C)(C)C(=O)N1 [Compound 43, [4-Aminomethyl-phenylacetyl](1c)*AE(2c)WQ[Dab](2c)[7-AzaTrp][2-Nal][Aib]E(1c)[Dab][3-(3-Pyridyl)-Ala]-[NHMe]] | 3.9 | 102 | 96 | –
CC(C)C[C@]1(C)NC(=O)[C@H](Cc2ccc3ccccc3c2)NC(=O)[C@H](Cc2ccc(OCCN)cc2)NC(=O)[C@@H]2CCNC(=O)CC[C@H](NC(=O)[C@H](CO)NC(=O)Cc3ccc(cc3)CNC(=O)CC[C@@H](C(=O)N[C@@H](CCN)C(=O)N[C@@H](Cc3cccnc3)C(=O)N(C)CC(N)=O)NC1=O)C(=O)N[C@@H](Cc1c[nH]c3ccccc13)C(=O)N[C@@H](CCC(N)=O)C(=O)N2 [Compound 9, [4-Aminomethyl-phenylacetyl](1c)*SE(2c)WQ[Dab](2c)[Y(2-aminoethoxy)][2-Nal][2-Me-Leu]E(1c)[Dab][3-(3-Pyridyl)-Ala][Sar]-[NH2]] ([X1]SEWQ[Dab][AEF][2Nal][αMeL]E[Dab][3Pal][Sar]-NH2; lactam 3-6, N-10) | 0.21 | 97 | 102 | SIF stable
